Holding throughout (type): in vivo
What all share (conditions): 5 mg/kg oral gavage

One assay addresses FAAH (Mus musculus (Mouse), UniProt O08914). Nature of the assay: Mouse brain proteomes from inhibitor treated mice (oral gavage, sacrifice 4 h after administration, ABPP analysis), FAAH. As for the experimental part:
(§1) Preparation of Mouse Brain Proteomes from Inhibitor Treated Mice.
(§2) Inhibitors were administered to wild-type C57Bl/6J by oral gavage in a vehicle, e.g. PEG400/Ethanol/PBS (7/2/1). Each animal was sacrificed 4 h following administration and brain proteomes were prepared and analyzed according to previously established methods (See Niphakis, M. J., et al. (2011) ACS Chem. Neurosci. and Long, J. Z., et al. Nat. Chem. Biol. 5:37-44). Data from this assay is shown in Table 2 (% inhibition at 5 mg/kg).

Another assay has as its target MAGL (Mus musculus (Mouse), UniProt O35678). Nature of the assay: Mouse brain proteomes from inhibitor treated mice (oral gavage, sacrifice 4 h after administration, ABPP analysis). As for the experimental part:
as §1, §2

The target in another assay is ABHD6 (Mus musculus (Mouse), UniProt Q8R2Y0). Nature of the assay: Mouse brain proteomes from inhibitor treated mice (oral gavage, sacrifice 4 h after administration, ABPP analysis), ABHD6. On the procedure: as §1, §2

Structures are written as SMILES.

ABHD6, sequence (Q8R2Y0 whole entry): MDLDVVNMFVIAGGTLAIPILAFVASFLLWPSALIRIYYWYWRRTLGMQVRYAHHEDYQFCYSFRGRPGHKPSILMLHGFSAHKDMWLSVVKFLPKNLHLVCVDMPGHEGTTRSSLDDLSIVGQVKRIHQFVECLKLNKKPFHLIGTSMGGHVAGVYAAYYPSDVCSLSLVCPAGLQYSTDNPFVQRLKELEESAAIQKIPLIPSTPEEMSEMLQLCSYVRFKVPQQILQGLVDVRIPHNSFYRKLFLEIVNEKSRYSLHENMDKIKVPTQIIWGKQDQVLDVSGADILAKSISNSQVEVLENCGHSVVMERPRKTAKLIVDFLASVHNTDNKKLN
MAGL, sequence (O35678 whole entry): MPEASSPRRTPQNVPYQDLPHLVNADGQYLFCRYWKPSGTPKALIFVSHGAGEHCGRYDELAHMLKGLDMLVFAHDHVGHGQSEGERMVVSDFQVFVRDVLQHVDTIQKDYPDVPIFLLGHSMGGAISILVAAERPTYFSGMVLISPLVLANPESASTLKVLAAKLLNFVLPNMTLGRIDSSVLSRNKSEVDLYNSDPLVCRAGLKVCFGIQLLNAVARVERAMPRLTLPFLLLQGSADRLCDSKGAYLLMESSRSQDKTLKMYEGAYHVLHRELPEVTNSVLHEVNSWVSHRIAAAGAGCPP
FAAH, sequence (O08914 whole entry): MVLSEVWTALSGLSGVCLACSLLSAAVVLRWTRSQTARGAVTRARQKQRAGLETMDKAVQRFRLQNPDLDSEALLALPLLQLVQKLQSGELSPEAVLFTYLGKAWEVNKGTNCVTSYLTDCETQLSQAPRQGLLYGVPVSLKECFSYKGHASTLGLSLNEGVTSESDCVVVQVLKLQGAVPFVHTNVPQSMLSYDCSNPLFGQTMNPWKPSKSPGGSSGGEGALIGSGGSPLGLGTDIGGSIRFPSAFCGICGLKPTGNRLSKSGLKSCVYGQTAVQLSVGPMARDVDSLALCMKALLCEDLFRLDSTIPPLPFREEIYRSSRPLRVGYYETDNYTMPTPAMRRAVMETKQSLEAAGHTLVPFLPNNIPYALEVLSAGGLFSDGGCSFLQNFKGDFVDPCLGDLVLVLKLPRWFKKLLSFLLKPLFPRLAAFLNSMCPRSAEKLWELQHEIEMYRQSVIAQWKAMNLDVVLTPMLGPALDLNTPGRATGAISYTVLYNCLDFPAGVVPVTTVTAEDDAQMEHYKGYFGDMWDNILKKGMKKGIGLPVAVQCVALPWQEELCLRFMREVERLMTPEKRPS

Consider `O=C(OC(C(F)(F)F)C(F)(F)F)N1CCC2(CCN(Cc3ccc(Cl)cc3N3CCOCC3)C2)CC1` [Example 21, 1,1,1,3,3,3-Hexafluoropropan-2-yl 2-(4-chloro-2-morpholinobenzyl)-2,8-diazaspiro[4.5]decane-8-carboxylate], for which the “FAAH % Inh 5 mg/kg (mouse)” value at FAAH is “# (# is < 25%)”. Further, the “MAGL % Inh 5 mg/kg (mouse)” value on MAGL was “### (### is ≥ 75%)”.
As to `O=C(OC(C(F)(F)F)C(F)(F)F)N1CCC2(CCCN2Cc2ccccc2Cl)CC1` [Example 60, 1,1,1,3,3,3-Hexafluoropropan-2-yl 1-(2-chlorobenzyl)-1,8-diazaspiro[4.5]decane-8-carboxylate], on ABHD6, the “ABHD6 % Inh 5 mg/kg (mouse)” value is listed as “# (# is < 25%)”. Moreover, the “MAGL % Inh 5 mg/kg (mouse)” value at MAGL was “### (### is ≥ 75%)”.
With `O=C(OC(C(F)(F)F)C(F)(F)F)N1CCC2(CCCN2Cc2ccc(F)c(OCCF)c2)CC1` [Example 29, 1,1,1,3,3,3-Hexafluoropropan-2-yl 1-(4-fluoro-3-(2-fluoroethoxy)benzyl)-1,8-diazaspiro[4.5]decane-8-carboxylate], the “ABHD6 % Inh 5 mg/kg (mouse)” value at ABHD6 was “### (### is ≥ 75%)”. Besides, the “MAGL % Inh 5 mg/kg (mouse)” value at MAGL is “### (### is ≥ 75%)”.
As for `CC1(C)CC2(CCN(C(=O)OC(C(F)(F)F)C(F)(F)F)CC2)CN1Cc1ccc(Cl)cc1` [Example 48, 1,1,1,3,3,3-Hexafluoropropan-2-yl 2-(4-chlorobenzyl)-3,3-dimethyl-2,8-diazaspiro[4.5]decane-8-carboxylate], the “FAAH % Inh 5 mg/kg (mouse)” value on FAAH is reported as “# (# is < 25%)”. The “MAGL % Inh 5 mg/kg (mouse)” value at MAGL was “### (### is ≥ 75%)”.
For `N#Cc1cc(CN2CCCC23CCN(C(=O)OC(C(F)(F)F)C(F)(F)F)CC3)cc(N2CCC(C(=O)O)CC2)c1` [Example 210] the same measures were “# (# is < 25%)” and “### (### is ≥ 75%)”.
The like results for `O=C(OC(C(F)(F)F)C(F)(F)F)N1CCC2(CCCN2Cc2ccc(OCCF)cc2)CC1` [Example 31, 1,1,1,3,3,3-Hexafluoropropan-2-yl 1-(4-(2-fluoroethoxy)benzyl)-1,8-diazaspiro[4.5]decane-8-carboxylate] were, in that order, “# (# is < 25%)” and “### (### is ≥ 75%)”.
With `O=C(OC(C(F)(F)F)C(F)(F)F)N1CCC2(CCCN2Cc2cc(Cl)cc(N3CCOCC3)c2)CC1` [Example 33, 1,1,1,3,3,3-Hexafluoropropan-2-yl 1-(3-chloro-5-morpholinobenzyl)-1,8-diazaspiro[4.5]decane-8-carboxylate], the “ABHD6 % Inh 5 mg/kg (mouse)” value at ABHD6 is “# (# is < 25%)”. In addition, the “MAGL % Inh 5 mg/kg (mouse)” value on MAGL is reported as “### (### is ≥ 75%)”.
On to `O=C(OC(C(F)(F)F)C(F)(F)F)N1CCC2(CCN(Cc3ccc(C(F)(F)F)c(N4CCCC4)c3)C2)CC1` [Example 157, 1,1,1,3,3,3-Hexafluoropropan-2-yl 2-(3-(pyrrolidin-1-yl)-4-(trifluoromethyl)benzyl)-2,8-diazaspiro[4.5]decane-8-carboxylate], for which the “FAAH % Inh 5 mg/kg (mouse)” value at FAAH was “# (# is < 25%)”. For the same compound, the “MAGL % Inh 5 mg/kg (mouse)” value at MAGL is given as “### (### is ≥ 75%)”.
For `CCN1CCCc2cccc(CN3CCC4(CCN(C(=O)OC(C(F)(F)F)C(F)(F)F)CC4)C3)c21` [Example 71, 1,1,1,3,3,3-Hexafluoropropan-2-yl 2-((1-ethyl-1,2,3,4-tetrahydroquinolin-8-yl)methyl)-2,8-diazaspiro[4.5]decane-8-carboxylate] the same measures were “# (# is < 25%)” and “### (### is ≥ 75%)”.
Turning to `O=C(OC(C(F)(F)F)C(F)(F)F)N1CCC2(CCCN2Cc2ccc(Cl)cc2N2CCC2)CC1` [Example 107, 1,1,1,3,3,3-Hexafluoropropan-2-yl 1-(2-(azetidin-1-yl)-4-chlorobenzyl)-1,8-diazaspiro[4.5]decane-8-carboxylate], the “ABHD6 % Inh 5 mg/kg (mouse)” value at ABHD6 was “# (# is < 25%)”. In addition, at MAGL, the “MAGL % Inh 5 mg/kg (mouse)” value is “### (### is ≥ 75%)”.
Turning to `O=C(O)C1CCN(c2cc(Cl)cc(CN3CCCC34CCN(C(=O)OC(C(F)(F)F)C(F)(F)F)CC4)c2)CC1` [Example 122, 1-(3-Chloro-5-((8-(((1,1,1,3,3,3-hexafluoropropan-2-yl)oxy)carbonyl)-1,8-diazaspiro[4.5]decan-1-yl)methyl)phenyl)piperidine-4-carboxylic acid], the “MAGL % Inh 5 mg/kg (mouse)” value on MAGL is reported as “### (### is ≥ 75%)”.
As for `O=C(O)c1cc(CN2CCCC23CCN(C(=O)OC(C(F)(F)F)C(F)(F)F)CC3)ccc1C(F)(F)F` [Example 179, 5-((8-((1,1,1,3,3,3-Hexafluoropropan-2-yloxy)carbonyl)-1,8-diazaspiro[4.5]decan-1-yl)methyl)-2-(trifluoromethyl)benzoic acid], on ABHD6, the “ABHD6 % Inh 5 mg/kg (mouse)” value is listed as “# (# is < 25%)”. In addition, at MAGL, the “MAGL % Inh 5 mg/kg (mouse)” value is “### (### is ≥ 75%)”.
For the compound `Cc1ccc(CN2CCCC23CCN(C(=O)OC(C(F)(F)F)C(F)(F)F)CC3)cc1C(F)(F)F` [Example 180, 1,1,1,3,3,3-Hexafluoropropan-2-yl 1-(4-methyl-3-(trifluoromethyl)benzyl)-1,8-diazaspiro[4.5]decane-8-carboxylate], the “MAGL % Inh 5 mg/kg (mouse)” value on MAGL was “### (### is ≥ 75%)”.
Regarding `CCOc1cccc(CN2CCCC23CCN(C(=O)OC(C(F)(F)F)C(F)(F)F)CC3)c1` [Example 5, 1,1,1,3,3,3-Hexafluoropropan-2-yl 1-(3-ethoxybenzyl)-1,8-diazaspiro[4.5]decane-8-carboxylate], the “FAAH % Inh 5 mg/kg (mouse)” value on FAAH is on record as “# (# is < 25%)”. Further, the “MAGL % Inh 5 mg/kg (mouse)” value at MAGL is reported as “### (### is ≥ 75%)”.
For the compound `CS(=O)(=O)N1CCc2cccc(CN3CCCC34CCN(C(=O)OC(C(F)(F)F)C(F)(F)F)CC4)c2C1` [Example 146, 1,1,1,3,3,3-Hexafluoropropan-2-yl 1-((2-methanesulfonyl-1,2,3,4-tetrahydroisoquinolin-8-yl)methyl)-1,8-diazaspiro[4.5]decane-8-carboxylate], at FAAH, the “FAAH % Inh 5 mg/kg (mouse)” value is listed as “# (# is < 25%)”. In addition, the “MAGL % Inh 5 mg/kg (mouse)” value at MAGL is reported as “### (### is ≥ 75%)”.
For `O=C(O)C1CCN(c2cc(CN3CCCC34CCN(C(=O)OC(C(F)(F)F)C(F)(F)F)CC4)cc(C(F)(F)F)c2)CC1` [Example 123, 1-(3-((8-(((1,1,1,3,3,3-Hexafluoropropan-2-yl)oxy)carbonyl)-1,8-diazaspiro[4.5]decan-1-yl)methyl)-5-(trifluoromethyl)phenyl)piperidine-4-carboxylic acid] the same measures were “# (# is < 25%)” and “### (### is ≥ 75%)”.
As for `O=C(OC(C(F)(F)F)C(F)(F)F)N1CCC2(CCCN2Cc2cccc(N3CCCCC3)c2Cl)CC1` [Example 80, 1,1,1,3,3,3-Hexafluoropropan-2-yl 1-(2-chloro-3-(piperidin-1-yl)benzyl)-1,8-diazaspiro[4.5]decane-8-carboxylate], the “MAGL % Inh 5 mg/kg (mouse)” value on MAGL is recorded as “### (### is ≥ 75%)”.
Consider `COc1c(Cl)cccc1CN1CCCC12CCN(C(=O)OC(C(F)(F)F)C(F)(F)F)CC2` [Example 10, 1,1,1,3,3,3-Hexafluoropropan-2-yl 1-(3-chloro-2-methoxybenzyl)-1,8-diazaspiro[4.5]decane-8-carboxylate], for which the “ABHD6 % Inh 5 mg/kg (mouse)” value at ABHD6 is given as “# (# is < 25%)”. Also, the “MAGL % Inh 5 mg/kg (mouse)” value at MAGL was “### (### is ≥ 75%)”.

The values above are taken from patent publication US10781211B2, “Spirocycle compounds and methods of making and using same” (Lundbeck La Jolla Research Center, Inc., priority 2016, dated 2020).
